From patent US8609173B2, “Compositions comprising sweetness enhancers and methods of making them” (Senomyx Inc., priority 2008, dated 2013)

Experiments:
External panelists = assay: Line scale (15-point sucrose equivalence) sensory test, Example 5, sucrose or LSB, pH 7.1; type: in vivo, Human
Method: (§1) Several types of sensory tests were used to determine the efficacy of 3-(4-amino-2,2-dioxide-1H-benzo[c][1,2,6]thiadiazin-5-yloxy)-2′,2′-dimethyl-N-propylpropanamide 3-(4-amino-2,2-dioxide-1H-benzo[c][1,2,6]thiadiazin-5-yloxy)-2′,2′-dimethyl-N-propylpropanamide in enhancing the sweetness of sucrose. Two types of tests were conducted: • 1) Sensory scaling tests were performed using a 15-point percent sucrose equivalence scale for sweetness in order to evaluate sweetness enhancement 3-(4-amino-2,2-dioxide-1H-benzo[c][1,2,6]thiadiazin-5-yloxy)-2′,2′-dimethyl-N-propylpropanamide 3-(4-amino-2,2-dioxide-1H-benzo[c][1,2,6]thiadiazin-5-yloxy)-2′,2′-dimethyl-N-propylpropanamide in sucrose or in fructose. • 2) Paired comparison tests (2-alternative forced choice difference tests) were used to determine sweetness equivalence for solutions of sucrose vs. 3-(4-amino-2,2-dioxide-1H-benzo[c][1,2,6]thiadiazin-5-yloxy)-2′,2′-dimethyl-N-propylpropanamide 3-(4-amino-2,2-dioxide-1H-benzo[c][1,2,6]thiadiazin-5-yloxy)-2′,2′-dimethyl-N-propylpropanamide or buffer vs. 3-(4-amino-2,2-dioxide-1H-benzo[c][1,2,6]thiadiazin-5-yloxy)-2′,2′-dimethyl-N-propylpropanamide 3-(4-amino-2,2-dioxide-1H-benzo[c][1,2,6]thiadiazin-5-yloxy)-2′,2′-dimethyl-N-propylpropanamide. Stimuli:
Tests were performed with sucrose or fructose. The sweetener was evaluated with and/or without 3-(4-amino-2,2-dioxide-1H-benzo[c][1,2,6]thiadiazin-5-yloxy)-2′,2′-dimethyl-N-propylpropanamide 3-(4-amino-2,2-dioxide-1H-benzo[c][1,2,6]thiadiazin-5-yloxy)-2′,2′-dimethyl-N-propylpropanamide at the appropriate concentration(s).
3-(4-amino-2,2-dioxide-1H-benzo[c][1,2,6]thiadiazin-5-yloxy)-2′,2′-dimethyl-N-propylpropanamide was prepared as a concentrated stock solution in ethanol to ensure dissolution of the 3-(4-amino-2,2-dioxide-1H-benzo[c][1,2,6]thiadiazin-5-yloxy)-2′,2′-dimethyl-N-propylpropanamide. Therefore, all taste solutions contained ethanol in the final solution. Samples without 3-(4-amino-2,2-dioxide-1H-benzo[c][1,2,6]thiadiazin-5-yloxy)-2′,2′-dimethyl-N-propylpropanamide also contained an equivalent concentration of ethanol. For samples involving 3-(4-amino-2,2-dioxide-1H-benzo[c][1,2,6]thiadiazin-5-yloxy)-2′,2′-dimethyl-N-propylpropanamide at 5-10 ppm (up to 28 μM), the final concentration of ethanol was 0.2%; 30-40 μM, 0.4% ethanol; 50 μM, 0.5% ethanol; and 100 μM, 1% ethanol.
Taste samples were also prepared in low sodium phosphate buffer (pH 7.1; “LSB”) lacking sucrose to evaluate the taste of 3-(4-amino-2,2-dioxide-1H-benzo[c][1,2,6]thiadiazin-5-yloxy)-2′,2′-dimethyl-N-propylpropanamide alone. Low sodium phosphate buffer consists of 0.3 mM KCl, 0.5 mM Na2HPO4, and 0.175 mM KH2PO4.
In scaling test situations, the samples were rated on a 15-point scale for sweetness, ranging from 0=0% sucrose to 15=15% sucrose. To evaluate attributes other than sweetness, references are used for training and are prepared according to the table below. Note that each reference was given a score of 5 on the 15-point scale.
External panelists were used for the tests. The exact number of panelists is reported with test results. Subjects were instructed not to eat or drink anything (except water) for at least 1 hour prior to the test.
Panelists rinsed their mouths with water prior to starting any test. Samples were presented to panelists in a randomized, counterbalanced order. Panelists rinsed with water and had up to a 1 minute delay to clear the mouth of any tastes after each evaluation. Two replicates of each test were performed, unless otherwise noted.
In scaling tests, panelists rate samples monadically for the attributes listed above (see Stimuli). In paired comparison tests, panelists taste pairs of solutions and indicate which sample is perceived to be sweeter.
Attributes of interest are reported for each scaling taste test.
Panelists rinsed their mouths with water prior to starting any test. Samples were presented to panelists in a randomized, counterbalanced order. […]

Panelists = assay: Paired comparison taste test, Example 7, sucrose or fructose solutions; type: in vivo, Human; details: 1% Sucrose chosen, vs 28 μM (9.9 ppm) compound; n = 32
Method: as §1
Panelists evaluated two solutions in a paired comparison taste test procedure. They were instructed to select the sweeter of the two samples. They were also asked to comment on how difficult it was to tell the difference in sweetness between both samples and if any off tastes were perceived.
Panelists evaluated two solutions in a paired comparison taste test procedure and were instructed to select the sweeter of the two samples.

OC[C@H]1O[C@@](CO)(O[C@H]2O[C@H](CO)[C@@H](O)[C@H](O)[C@H]2O)[C@@H](O)[C@@H]1O [Sucrose, sucrose]
Average Sweetness (External panelists; 1% Sucrose, Table 25, n = 30): 1.2
Average Bitterness (External panelists; 1% Sucrose, Table 26, n = 30): 0.4
Average Sweetness (External panelists; 2% Sucrose, Table 20, n = 30): 2.3
Average Bitterness (External panelists; 2% Sucrose, Table 21, n = 30): 0.3
Average Sweetness (External panelists; 2% Sucrose, Table 22, n = 14): 2.3
Average Sweetness (External panelists; 2% Sucrose, Table 25, n = 30): 2.2
Average Bitterness (External panelists; 2% Sucrose, Table 26, n = 30): 0.3
Average Sweetness (External panelists; 2% Sucrose, Table 27, n = 28): 2.0
Average Bitterness (External panelists; 2% Sucrose, Table 28, n = 28): 0.1
Average Sweetness (External panelists; 4% Sucrose, Table 20, n = 30): 4.2
Average Bitterness (External panelists; 4% Sucrose, Table 21, n = 30): 0.2
Average Sweetness (External panelists; 4% Sucrose, Table 22, n = 14): 4.3
Average Sweetness (External panelists; 4% Sucrose, Table 25, n = 30): 4.4
Average Bitterness (External panelists; 4% Sucrose, Table 26, n = 30): 0.3
Average Sweetness (External panelists; 4% Sucrose, Table 27, n = 28): 4.2
Average Bitterness (External panelists; 4% Sucrose, Table 28, n = 28): 0.1
Average Sweetness (External panelists; 6% Sucrose, Table 16, n = 15): 6.3
Average Bitterness (External panelists; 6% Sucrose, Table 17, n = 15): 0.3
Average Sweetness (External panelists; 6% Sucrose, Table 18, n = 24): 6.2
Average Bitterness (External panelists; 6% Sucrose, Table 19, n = 24): 0.2
Average Sweetness (External panelists; 6% Sucrose, Table 20, n = 30): 5.8
Average Bitterness (External panelists; 6% Sucrose, Table 21, n = 30): 0.2
Average Sweetness (External panelists; 6% Sucrose, Table 22, n = 14): 5.7
Average Sweetness (External panelists; 6% Sucrose, Table 23, n = 30): 6.7
Average Bitterness (External panelists; 6% Sucrose, Table 24, n = 30): 0.4
Average Sweetness (External panelists; 6% Sucrose, Table 25, n = 30): 6.4
Average Bitterness (External panelists; 6% Sucrose, Table 26, n = 30): 0.6
Average Sweetness (External panelists; 6% Sucrose, Table 27, n = 28): 6.1
Average Bitterness (External panelists; 6% Sucrose, Table 28, n = 28): 0.1
Average Sweetness (External panelists; 8% Sucrose, Table 16, n = 15): 7.7
Average Bitterness (External panelists; 8% Sucrose, Table 17, n = 15): 0.1
Average Sweetness (External panelists; 8% Sucrose, Table 18, n = 24): 8.3
Average Bitterness (External panelists; 8% Sucrose, Table 19, n = 24): 0.1
Average Sweetness (External panelists; 8% Sucrose, Table 23, n = 30): 8.3
Average Bitterness (External panelists; 8% Sucrose, Table 24, n = 30): 0.4
Average Sweetness (External panelists; 8% Sucrose, Table 25, n = 30): 8.7
Average Bitterness (External panelists; 8% Sucrose, Table 26, n = 30): 0.3
Average Sweetness (External panelists; 8% Sucrose, Table 27, n = 28): 8.4
Average Bitterness (External panelists; 8% Sucrose, Table 28, n = 28): 0.2
Average Sweetness (External panelists; 9% Sucrose, Table 16, n = 15): 9.0
Average Bitterness (External panelists; 9% Sucrose, Table 17, n = 15): 0.1
Average Sweetness (External panelists; 9% Sucrose, Table 18, n = 24): 9.3
Average Bitterness (External panelists; 9% Sucrose, Table 19, n = 24): 0.1
Average Sweetness (External panelists; 10% Sucrose, Table 16, n = 15): 9.2
Average Bitterness (External panelists; 10% Sucrose, Table 17, n = 15): 0.2
Average Sweetness (External panelists; 10% Sucrose, Table 18, n = 24): 9.8
Average Bitterness (External panelists; 10% Sucrose, Table 19, n = 24): 0.1
Average Sweetness (External panelists; 10% Sucrose, Table 23, n = 30): 10.3
Average Bitterness (External panelists; 10% Sucrose, Table 24, n = 30): 0.2
Average Sweetness (External panelists; 10% Sucrose, Table 25, n = 30): 10.5
Average Bitterness (External panelists; 10% Sucrose, Table 26, n = 30): 0.3
Average Sweetness (External panelists; 10% Sucrose, Table 27, n = 28): 9.6
Average Bitterness (External panelists; 10% Sucrose, Table 28, n = 28): 0.1
Average Sweetness (External panelists; 12% Sucrose, Table 18, n = 24): 11.1
Average Bitterness (External panelists; 12% Sucrose, Table 19, n = 24): 0.0
Average Sweetness (External panelists; 12% Sucrose, Table 23, n = 30): 11.2
Average Bitterness (External panelists; 12% Sucrose, Table 24, n = 30): 0.3
Sample selected as more sweet by panelists, Total (Panelists): 28
